For one data set, the target named is concanavalin A (Con A) (Canavalia ensiformis, UniProt P02866). The conditions noted are these: higher affinity than glucose; cited from earlier work.
The next data set relates to non-diabetic SD rats. The format is in vivo, Sprague Dawley (SD) rats. How it is done:
FIG. 3: (a) Plot of (♦) serum insulin and (◯) blood glucose levels following subcutaneous injection in non-diabetic SD rats at time 0 with TSB-C4-AEBM-2-insulin/native Con A (an α-methyl mannose-responsive material). An i.p. injection of α-methyl mannose was administered at 120 min as indicated by the *.
0.300 ml of the formulation prepared in Example 1 was injected subcutaneously into each of three normal male Sprague Dawley (SD) rats (Charles River Laboratories, Wilmington, Mass.) weighing between 400 and 500 g. Prior to formulation injection, blood glucose values were measured via tail vein bleeding using a Precision Xtra glucometer (Abbott Laboratories, Alameda, Calif.) and approximately 100 ul of serum was obtained via tail vein bleeding to assay for background insulin levels. Food was removed from the rat cages during the duration of the study. Serum and blood glucose values were obtained at 30 min, 60 min, 90 min, and 120 min post-injection. At 120 min after the injection, an intraperitoneal injection of a 25% w/v α-methyl-mannose solution was injected to provide a 2 g/kg dose after which serum and blood glucose values were obtained at 135 min, 150 min, 180 min, 210 min, 240 min, and 300 min.

Regarding `COC1O[C@H](CO)[C@@H](O)[C@H](O)[C@@H]1O` (stereo partly drawn) [α-methyl-mannose], on concanavalin A (Con A), the “affinity for Con A relative to endogenous glucose” value is recorded as “about 40 fold”.

On to “exemplary conjugate with two AEBM affinity ligands: Conjugate with TSB-C4 as the scaffold, AEBM as the affinity ligand, insulin (conjugated at Phe-B1) as the drug”, for which the “conjugate release at physiologically normal blood glucose levels (background release)” value in the data set on non-diabetic SD rats (rat, in vivo, sc) was “very little background release”. Besides, the “response to exogenous α-methyl-mannose” value in the data set on non-diabetic SD rats (summary statement on Examples 1-2) was “significant response”.

The values above are taken from patent US8846103B2, “Exogenously triggered controlled release materials and uses thereof” (SmartCells, Inc., priority 2009, dated 2014).
